The source of these data is article PMC6158709, “Chemical genetic inhibition of DEAD-box proteins using covalent complementarity” (Nucleic Acids Research, 2018).

The target in one assay is T1, DDX3 (132-607) (Homo sapiens, UniProt O00571).
T1 construct: gene DDX3X; helicase core, residues 132-607, recombinant, purified as previously described
Kind of assay: coupled ATPase assay, RNA-dependent. In kind it is biochemical. The conditions noted are these: duplex RNA; four ATP concentrations.

The next assay has as its target T2, DDX3 (132-406) (Homo sapiens, UniProt O00571).
T2 construct: gene DDX3X; truncated, residues 132-406, recombinant, purified as previously described
Kind of assay: differential scanning fluorimetry. In kind it is binding. The conditions noted are these: saturating AMP; 4 μM protein, pH 7.5, 5 mM MgCl2.

Another assay has as its target T3, HA-eIF4A^ES (Saccharomyces cerevisiae, UniProt P10081).
T3 construct: gene TIF1; HA-tagged ES mutant in yeast lysate, immunoprecipitated after labelling
Kind of assay: competition of N-propargylmaleimide labelling, click TAMRA, in gel fluorescence after HA immunoprecipitation. Type of assay: biochemical. Particulars: covalent; yeast lysate, 10 μM AMP-acrylate followed by 10 μM NPM.

A further assay deals with T4, Dbp2 (Saccharomyces cerevisiae, UniProt P24783, S161C).
T4 construct: full-length, expressed in E. coli BL21 (DE3) as 6xHis-SUMO fusion, incubated with SUMO protease
Nature of the assay: RNA duplex unwinding assay. In kind it is biochemical. The conditions noted are these: covalent; 0.5 μM enzyme, 2 mM ATP/MgCl2, pH 7.5, 5 min pre-incubation.

T4 sequence (P24783 whole entry S161C, the tested form may be a part): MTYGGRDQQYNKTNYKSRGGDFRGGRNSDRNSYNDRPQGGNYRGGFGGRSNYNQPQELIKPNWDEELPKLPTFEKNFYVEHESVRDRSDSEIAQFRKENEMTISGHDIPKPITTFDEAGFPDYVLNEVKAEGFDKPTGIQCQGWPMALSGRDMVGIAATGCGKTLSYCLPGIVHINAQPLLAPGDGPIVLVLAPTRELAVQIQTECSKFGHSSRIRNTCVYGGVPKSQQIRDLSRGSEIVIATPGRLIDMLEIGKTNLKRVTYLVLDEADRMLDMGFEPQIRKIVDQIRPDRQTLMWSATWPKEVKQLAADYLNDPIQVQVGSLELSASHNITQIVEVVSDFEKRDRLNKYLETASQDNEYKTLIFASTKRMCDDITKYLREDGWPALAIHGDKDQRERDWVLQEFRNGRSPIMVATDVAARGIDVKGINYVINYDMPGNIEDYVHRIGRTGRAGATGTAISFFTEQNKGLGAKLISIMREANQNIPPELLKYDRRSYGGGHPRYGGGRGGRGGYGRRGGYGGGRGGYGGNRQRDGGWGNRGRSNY
T1 sequence (O00571 132-607): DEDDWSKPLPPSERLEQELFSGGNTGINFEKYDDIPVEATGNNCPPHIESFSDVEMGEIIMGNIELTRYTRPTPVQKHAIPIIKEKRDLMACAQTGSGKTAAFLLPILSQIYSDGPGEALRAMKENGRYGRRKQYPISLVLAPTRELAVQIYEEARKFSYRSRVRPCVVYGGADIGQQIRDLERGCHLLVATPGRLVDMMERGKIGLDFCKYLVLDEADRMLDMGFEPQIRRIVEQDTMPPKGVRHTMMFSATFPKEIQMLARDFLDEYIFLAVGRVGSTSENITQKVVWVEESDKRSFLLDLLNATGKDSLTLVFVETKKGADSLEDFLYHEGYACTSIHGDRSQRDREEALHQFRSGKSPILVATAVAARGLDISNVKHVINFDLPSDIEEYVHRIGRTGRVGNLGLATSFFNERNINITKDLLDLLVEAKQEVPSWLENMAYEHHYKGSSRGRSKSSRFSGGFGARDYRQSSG
T2 sequence (O00571 132-406): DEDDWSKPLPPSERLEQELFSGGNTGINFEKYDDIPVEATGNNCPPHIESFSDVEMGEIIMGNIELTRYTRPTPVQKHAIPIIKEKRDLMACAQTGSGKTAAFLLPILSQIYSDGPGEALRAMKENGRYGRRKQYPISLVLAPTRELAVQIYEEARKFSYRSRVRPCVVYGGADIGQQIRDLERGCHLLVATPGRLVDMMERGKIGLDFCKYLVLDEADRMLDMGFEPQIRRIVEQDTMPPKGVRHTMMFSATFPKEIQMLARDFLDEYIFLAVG
T3 sequence (P10081 2-395): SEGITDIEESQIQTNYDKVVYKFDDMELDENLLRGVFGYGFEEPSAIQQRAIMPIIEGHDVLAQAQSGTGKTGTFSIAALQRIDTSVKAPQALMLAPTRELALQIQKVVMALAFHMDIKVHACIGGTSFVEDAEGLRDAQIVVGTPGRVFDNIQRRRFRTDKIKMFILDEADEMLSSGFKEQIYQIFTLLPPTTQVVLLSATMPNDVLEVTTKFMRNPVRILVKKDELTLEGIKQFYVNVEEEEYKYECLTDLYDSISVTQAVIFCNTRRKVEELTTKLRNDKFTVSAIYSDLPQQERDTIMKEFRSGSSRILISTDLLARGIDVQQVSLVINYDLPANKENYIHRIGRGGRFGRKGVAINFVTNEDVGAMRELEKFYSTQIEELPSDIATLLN

With `Nc1ncnc2c1ncn2[C@@H]1O[C@H](COP(=O)(O)OP(=O)(O)OP(=O)(O)O)[C@@H](O)[C@H]1O` [ATP], the “coupled ATPase assay, RNA-dependent” value at DDX3 (132-607) is “both DDX3^WT and DDX3^ES hydrolyzed ATP in the presence of duplex RNA”.
Consider `Nc1ncnc2c1ncn2[C@@H]1O[C@H](COP(=O)(O)O)[C@@H](O)[C@H]1O` [AMP], for which the Tm result on DDX3 (132-406) was “Saturating concentrations of AMP stabilizes DDX3^WT and DDX3^ES to the same extent”.
As for `C=CC(=O)OP(=O)(O)OC[C@H]1O[C@@H](n2cnc3c(N)ncnc32)[C@H](O)[C@@H]1O` [AMP-acrylate], the NPM labeling entry at HA-eIF4A^ES is reported as “labeling of HA-eIF4A^ES by NPM is competed by AMP-acrylate treatment”. Besides, the “fraction of RNA duplex unwound” value at Dbp2 was “duplex unwinding by ES Dbp2 (S161C) is reduced by AMP-acrylate”.
